Eleven molecules from ChEMBL document CHEMBL1201862, “PubChem BioAssay data set” (2004) can be followed below.

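Five concentrations, 48 hours, 96-well plates. GI50 marks 50% less growth.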 Calls of active or inactive are those of the source. Rule as the data show it: active = GI50 up to about 1.1 µM and inactive = higher. Some results are limits rather than exact numbers.

Test systems include MDA-MB-231; K562; Malme-3M; IGROV-1; SK-OV-3; COLO 205; SK-MEL-28; DU-145; MCF7; UACC-62; SK-MEL-2; RXF 393; OVCAR-5; SNB-19; SNB-75; NCI-H226; ACHN; UACC-257; SW-620.
Common to all, as to assay: NCI-60 cell line screen, 48 h

On to `CC(C)(C)c1ccc(OCCOc2ccc(C(C)(C)C)cc2N)c(N)c1`, for which the GI50 is 17.5 µM (inactive) with MDA-MB-231; > 100 µM (inactive) with K562; 22.2 µM (inactive) with Malme-3M; 38.5 µM (inactive) in the experiment on IGROV-1; > 100 µM (inactive) with SK-OV-3; > 100 µM (inactive) with COLO 205. Also, the GI50 in the experiment with SK-MEL-28, with DU-145, in the experiment on MCF7, with UACC-62, in the experiment on SK-MEL-2 and with RXF 393 was > 100 µM (inactive) in each case. The GI50 was > 100 µM (inactive) in the experiment on OVCAR-5; > 100 µM (inactive) in the experiment on SNB-19; 47.8 µM (inactive) with SNB-75; > 100 µM (inactive) in the experiment with NCI-H226; 60.1 µM (inactive) with ACHN; > 100 µM (inactive) with UACC-257. Besides, in the experiment with SW-620, the GI50 is > 100 µM (inactive).
Turning to `COc1cc2c(cc1OC(=O)c1cc3ccccc3[nH]1)N=C[C@@H]1CCCN1C2=O`, the GI50 in the experiment with MDA-MB-231 was 0.418 µM (active); in the experiment on K562, 0.306 µM (active); in the experiment on Malme-3M, 0.398 µM (active); in the experiment on IGROV-1, 0.274 µM (active); in the experiment with SK-OV-3 it was 1.35 µM (inactive); in the experiment with COLO 205, 0.202 µM (active). The GI50 with SK-MEL-28 is 0.531 µM (active); in the experiment on DU-145, 0.425 µM (active); in the experiment with MCF7, 0.397 µM (active); with UACC-62, 0.269 µM (active); in the experiment on SK-MEL-2, 0.224 µM (active); in the experiment on RXF 393, 0.165 µM (active). Further, the GI50 was 0.255 µM (active) with OVCAR-5; 0.352 µM (active) in the experiment with SNB-19; 1.41 µM (inactive) in the experiment on SNB-75; 0.809 µM (active) in the experiment with NCI-H226; 0.244 µM (active) with ACHN; 0.268 µM (active) with UACC-257. Further, the GI50 with SW-620 is 0.325 µM (active).
Consider `COc1cccc2cc(C(=O)NC34CC5CC(CC(C5)C3)C4)c(=N)oc12`, for which the GI50 is > 100 µM (inactive) in the experiment with MDA-MB-231; 50.9 µM (inactive) in the experiment on K562; > 86.5 µM (inactive) in the experiment with Malme-3M; > 46.3 µM (inactive) in the experiment with IGROV-1; 58.6 µM (inactive) in the experiment with SK-OV-3; 58.3 µM (inactive) in the experiment with COLO 205. Besides, the GI50 in the experiment on SK-MEL-28 is > 71 µM (inactive); in the experiment with DU-145, > 100 µM (inactive); in the experiment on MCF7, 13.2 µM (inactive); in the experiment on UACC-62, > 100 µM (inactive); with SK-MEL-2, > 95.1 µM (inactive); with RXF 393, 33.6 µM (inactive). Besides, the GI50 in the experiment with OVCAR-5 is > 100 µM (inactive); in the experiment on SNB-19, 73.8 µM (inactive); in the experiment on SNB-75, 44.6 µM (inactive); in the experiment with NCI-H226, > 61 µM (inactive); in the experiment on ACHN, > 67.6 µM (inactive); in the experiment with UACC-257 it was > 89.3 µM (inactive). Besides, in the experiment with SW-620, the GI50 was 49.9 µM (inactive).
Take `Cc1cc(S(=O)(=O)NC2=NNC(C)CN2)c(S)cc1Cl` (stereo not given): the GI50 with MDA-MB-231 is 62.2 µM (inactive); with K562 it was 27 µM (inactive); in the experiment on Malme-3M, 16.7 µM (inactive); in the experiment with IGROV-1, 23.9 µM (inactive); with SK-OV-3, > 100 µM (inactive); with COLO 205, > 100 µM (inactive). The GI50 was 41.6 µM (inactive) in the experiment with SK-MEL-28; 75.7 µM (inactive) with DU-145; 35.8 µM (inactive) with MCF7; 51.2 µM (inactive) in the experiment with UACC-62; 21 µM (inactive) in the experiment on SK-MEL-2; 50.9 µM (inactive) in the experiment on RXF 393. For the same molecule, the GI50 in the experiment on OVCAR-5 is 93.3 µM (inactive); with SNB-19, 60 µM (inactive); with SNB-75, 93.5 µM (inactive); with NCI-H226, 45.2 µM (inactive); with ACHN, 46.1 µM (inactive); with UACC-257, > 100 µM (inactive). The GI50 in the experiment on SW-620 was 32.3 µM (inactive).
In the case of `COc1ccc(C(=O)/C=C/c2ccncc2)cc1OC`, the GI50 in the experiment on MDA-MB-231 is 12 µM (inactive); in the experiment with K562, 2.31 µM (inactive); in the experiment with Malme-3M it was 18.3 µM (inactive); in the experiment with IGROV-1 it was 12.9 µM (inactive); in the experiment with SK-OV-3 it was 17.2 µM (inactive); in the experiment on COLO 205, 15.5 µM (inactive). For the same molecule, the GI50 is 17.3 µM (inactive) in the experiment on SK-MEL-28; 17.7 µM (inactive) in the experiment on DU-145; 3.74 µM (inactive) in the experiment on MCF7; 15.5 µM (inactive) in the experiment with UACC-62; 16.7 µM (inactive) in the experiment on SK-MEL-2; 12.6 µM (inactive) in the experiment with RXF 393. Besides, the GI50 was 14.3 µM (inactive) with OVCAR-5; 18.5 µM (inactive) with SNB-19; 13.5 µM (inactive) in the experiment on SNB-75; 15.5 µM (inactive) with NCI-H226; 14.9 µM (inactive) with ACHN; 12.9 µM (inactive) with UACC-257.
In the case of `O=C1Nc2ccccc2/C1=N/NC(=S)Nc1ccc(Cl)cc1`, the GI50 in the experiment on MDA-MB-231 was 26.7 µM (inactive); in the experiment with K562 it was 29.9 µM (inactive); in the experiment on Malme-3M, 9.62 µM (inactive); with IGROV-1 it was 26.6 µM (inactive); with SK-OV-3 it was 38.5 µM (inactive); with COLO 205 it was 40.8 µM (inactive). In addition, the GI50 in the experiment with SK-MEL-28 was > 100 µM (inactive); with DU-145 it was > 100 µM (inactive); with MCF7 it was 48.6 µM (inactive); in the experiment on UACC-62, 50.7 µM (inactive); in the experiment with SK-MEL-2, 24.5 µM (inactive); in the experiment on RXF 393, 39.4 µM (inactive). The GI50 was 64.6 µM (inactive) with OVCAR-5; 41.8 µM (inactive) in the experiment with SNB-19; 33 µM (inactive) in the experiment with SNB-75; 22.2 µM (inactive) in the experiment on NCI-H226; 25.6 µM (inactive) in the experiment on ACHN; 15.2 µM (inactive) with UACC-257. The GI50 with SW-620 is 29.4 µM (inactive).
Take `Cc1cc2nc(CC(C(F)(F)F)C(F)(F)F)oc2cc1C`: the GI50 is 2.45 µM (inactive) in the experiment on MDA-MB-231; 0.0931 µM (active) in the experiment on K562; 3.34 µM (inactive) in the experiment on Malme-3M; 1.97 µM (inactive) in the experiment with IGROV-1; 14.1 µM (inactive) in the experiment on SK-OV-3; 1.54 µM (inactive) with COLO 205. For the same molecule, the GI50 in the experiment on SK-MEL-28 was 3.24 µM (inactive); in the experiment with DU-145, 4.36 µM (inactive); in the experiment with MCF7, 2.54 µM (inactive); in the experiment with UACC-62, 1.42 µM (inactive); in the experiment with SK-MEL-2 it was 2.81 µM (inactive); in the experiment on RXF 393 it was 2.51 µM (inactive). Moreover, the GI50 in the experiment on OVCAR-5 was 7.41 µM (inactive); in the experiment with SNB-19 it was 5.09 µM (inactive); with SNB-75 it was 1.61 µM (inactive); in the experiment on NCI-H226, 1.88 µM (inactive); in the experiment with ACHN, 7.26 µM (inactive); in the experiment on UACC-257 it was 4.46 µM (inactive). Also, the GI50 in the experiment with SW-620 was 0.608 µM (active).
Consider `N#Cc1ccc(OC(=O)c2ccc(NC(=N)N)cc2)cc1.c1ccncc1`, for which the GI50 is > 100 µM (inactive) with MDA-MB-231; 42 µM (inactive) in the experiment on K562; > 100 µM (inactive) in the experiment on Malme-3M; > 100 µM (inactive) with IGROV-1; > 100 µM (inactive) with SK-OV-3; 39.1 µM (inactive) in the experiment with COLO 205. The GI50 was > 100 µM (inactive) with SK-MEL-28; > 100 µM (inactive) with DU-145; 39.9 µM (inactive) with MCF7; > 100 µM (inactive) with UACC-62; > 100 µM (inactive) with SK-MEL-2; > 100 µM (inactive) with RXF 393. For the same molecule, the GI50 with OVCAR-5 is > 100 µM (inactive); with SNB-19, 56.2 µM (inactive); with SNB-75 it was 43.9 µM (inactive); in the experiment on NCI-H226, 50 µM (inactive); in the experiment on ACHN it was > 100 µM (inactive); with UACC-257, > 100 µM (inactive). Also, the GI50 with SW-620 was 35.5 µM (inactive).
Consider `Cc1cc(S(=O)(=O)n2ccnc2Oc2cccc(Cl)c2)c(SSc2cc(Cl)c(C)cc2S(=O)(=O)n2ccnc2Oc2cccc(Cl)c2)cc1Cl`, for which the GI50 is 12.4 µM (inactive) in the experiment on MDA-MB-231; 9.93 µM (inactive) in the experiment with K562; 5.74 µM (inactive) in the experiment with Malme-3M; 8.13 µM (inactive) in the experiment on IGROV-1; 12.4 µM (inactive) with SK-OV-3; 2.57 µM (inactive) in the experiment on COLO 205. Moreover, the GI50 in the experiment with SK-MEL-28 was 14.1 µM (inactive); in the experiment with DU-145 it was 5.32 µM (inactive); with MCF7, 3.21 µM (inactive); with UACC-62, 5.7 µM (inactive); with SK-MEL-2, 7.66 µM (inactive); in the experiment with RXF 393, 3.08 µM (inactive). Further, the GI50 in the experiment on OVCAR-5 was 10.4 µM (inactive); in the experiment with SNB-75, 7.59 µM (inactive); in the experiment on NCI-H226 it was 6.37 µM (inactive); in the experiment with ACHN it was 8.36 µM (inactive); in the experiment on UACC-257, 8.09 µM (inactive); in the experiment with SW-620, 11.7 µM (inactive).
For `O=C1c2ccccc2-c2c1c(-c1cccc(Br)c1)nc1ccc3ccccc3c21`, the GI50 with MDA-MB-231, in the experiment with K562, in the experiment on Malme-3M, with SK-OV-3, in the experiment with COLO 205 and in the experiment on SK-MEL-28 was > 100 µM (inactive) each time. The GI50 in the experiment with DU-145, in the experiment with MCF7, in the experiment with UACC-62, in the experiment on SK-MEL-2, in the experiment with RXF 393 and in the experiment with OVCAR-5 was > 100 µM (inactive) each time. Moreover, the GI50 with SNB-19, with SNB-75, in the experiment on NCI-H226, in the experiment with ACHN, with UACC-257 and in the experiment with SW-620 was > 100 µM (inactive) throughout.
`COc1c(C)c2c(c(=O)c3c(C)cccc3n2C)c2c1c(=O)c1c(C)cccc1n2C`: the GI50 in the experiment with MDA-MB-231, in the experiment on K562, with Malme-3M, in the experiment on IGROV-1, with SK-OV-3 and in the experiment on COLO 205 was > 10 µM (inactive) in each case. Moreover, the GI50 in the experiment on SK-MEL-28, with DU-145, in the experiment with MCF7, in the experiment on UACC-62, with SK-MEL-2 and in the experiment on RXF 393 was > 10 µM (inactive) in each case. The GI50 in the experiment on OVCAR-5, with SNB-19, in the experiment with SNB-75, in the experiment on NCI-H226, in the experiment with ACHN and in the experiment with UACC-257 was > 10 µM (inactive) each time.
